# Reference: patent publication US9770451B2, “Composition including ATM inhibitor for reducing cellular senescence and use of the composition” (Samsung Electronics Co., Ltd., priority 2014, dated 2017)
# Tests used:
# C57BL/6J mice = assay: Wound healing assay (full-thickness punch-biopsy wounds); assay type: in vivo, mouse; conditions: for closure difference between KU-60019-treated and DMSO-treated wounds: day 7; for mean wound closure: day 7, topical 5 μM in 30% Pluronic gel daily
# Method: To further test whether ATMi can promote cutaneous wounding healing in young (3 months old) and old (19 months old) male mice (C57BL/6J mice), four full-thickness punch-biopsy wounds (8 mm in diameter) were created on the dorsal skin of mouse (5 mice/experimental group), drug at a concentration of 5 μM KU-60019 in 30% Pluronic gel (Pluronic F-127 Sigma, P2443-1 KG) 0.5 mL was applied to wounds every day, and then covered the wounds with Telfa sponges (Kendall Health Care, Mansfield, Mass., USA). All animal studies were reviewed and approved by the […] Animal Care and Use Committee of SKKU School of Medicine (SUSM). SUSM is an Association for Assessment and Accreditation of Laboratory Animal Care international accredited facility and abides by the Institute for Laboratory Animal Research guide. Wounds were photographed for 10 days. Immunohistochemistry analyses were performed on 5 μm paraffin embedded sections as described previously (Lin et. al., 2004. Developmental Biology 270, 474-486). Primary antibodies used for immunohistochemistry were mouse anti-α-smooth muscle actin (Sigma, F3777-2ML, 1:500), and mouse anti-PCNA (Santa Cruz Biotechnology, SC-56, 1:500). Secondary antibodies used for immunohistochemistry were EnVision™ Detection System (DAKO, K5007). Masson-Trichrome staining was performed according to the manufacturer's instructions (Polysciences Inc., Warrington Pa., USA).
# To further test whether KU-60019 can promote cutaneous wounding healing in young (3 months old) and old (19 months old) mice, we created full-thickness punch-biopsy wounds 8 mm in diameter on the dorsal skin of 10 mice (5 mice/each group), applied to the wounds at a concentration of 5 μM KU-60019 in 30% Pluronic gel (Pluronic F-127 Sigma, P2443-1 KG), and then covered the wounds with Telfa sponges (Kendall Health Care, Mansfield, Mass., USA). Pluronic F-127 is a hydrogel widely used in pharmaceuticals as a drug delivery vehicle for a variety of soluble mediators, including antibodies, cytokines, and growth factors. […] Only 13.5% closure difference was shown between KU-60019-treated and DMSO-treated wounds. […] 20% closure difference was shown between KU-60019-treated and DMSO-treated wounds. […] KU-60019-treated wounds are capable of complete and efficient closure.
# [1] = test system: senescent fibroblasts (passage 37); assay: Soft agar assay for abnormal (cancer-like) proliferation; assay type: cell-based, human; conditions: 0.5 μM, 4 weeks; 293T cells formed colonies
# Method: In addition, to confirm whether the cells proliferated by the culture proliferate abnormally, for example, proliferate like cancer cells, a soft agar assay was carried out. First, the DMEM medium containing 10% FBS was mixed with a 1.6% agar medium at a ratio of 1:1, so as to prepare a medium containing 0.8% agar formulation to coat the bottom of each well of a 6-well plate. […] As a control group, a 293T cell line (ATCC® CRL-11268™) from human embryonic kidney was used. […] The same procedure applies similarly to the remaining images b, c, and d. In FIG. 3, HDF M11 p37 refers to a human dermal fibroblast M11 strain, which is a sub-cultured fibroblast (passage 37). In FIG. 3, KU-60019-KU-60019 refers to a process of continuously adding KU-60019 to a medium and culturing for 28 days; KU-60019-DMSO refers to a process of adding KU-60019 to a medium and culturing for 14 days, removing KU-60019, and then, culturing the cells in the absence of KU-60019 for another 14 days; DMSO-DMSO refers to a condition where KU-60019 is not added at all and the cells cultured for 28 days. The 293T cells were cultured under the same condition as DMSO-DMSO, and then, applied to the soft agar assay.
# [2] = test system: senescent fibroblasts (passage 37); assay: Cell proliferation and formation of cell colonies (crystal violet staining); assay type: cell-based, human; conditions: among 0.1, 0.5 and 2 μM
# Method: A human fibroblast cell line was inoculated into a Dulbecco's Modified Eagle's medium (DMEM) containing 10% fetal bovine serum (FBS), 100 units/ml of penicillin, and 100 μg/ml of streptomycin (wherein these two antibiotics were purchased from Gibro-BRL, Grand Island, N.Y.), and then, cultured in a 5% CO2 incubator at a temperature of 37° C. The fibroblast cell line (i.e., M11 strain) was a cell line derived from the foreskin of a child. When the cells were grown to about 85% confluency in a plate, the cells were subjected to subculture. The early subculture was carried out at a split ratio of 1:4, and the late subculture was carried out at a split ratio of 1:2. When the cell doubling time was 14 days, the cells were considered to be senescent fibroblasts (passages 35 to 37).
# To determine the optimal concentration upon the treatment with an ATM-kinase inhibitor KU-60019 (SELLECKCHEM, S1570, salt), the senescent fibroblasts (passage 37) were inoculated into each well of a 6-well plate at a concentration of 2,000 cells/well, and then, KU-60019 was added to each well of the 6-well plate ([…]). In addition, as a negative control group, the cells were cultured under the same conditions as described above, except that a medium used herein contained a dimethyl sulfoxide (DMSO) (0.05 (v/v) %) medium. […]
structure (smiles),measurement,setting,value
"C[C@@H]1CN(CC(=O)Nc2ccc3c(c2)Cc2cccc(-c4cc(=O)cc(N5CCOCC5)o4)c2S3)C[C@H](C)O1 [KU-60019, 2-((2S,6R)-2,6-dimethylmorpholino)-N-(5-(6-morpholino-4-oxo-4H-pyran-2-yl)-9H-thioxanthen-2-yl)acetamide]",closure difference between KU-60019-treated and DMSO-treated wounds,C57BL/6J mice; old mouse (19 months old),20%
same,mean wound closure,"C57BL/6J mice; old mouse (19 months old), control 49.4%",69.4%
same,closure difference between KU-60019-treated and DMSO-treated wounds,C57BL/6J mice; young mouse (3 months old),13.5%
same,mean wound closure,"C57BL/6J mice; young mouse (3 months old), control 74.1%",87.6%
same,colony formation in soft agar,[1],colonies were not formed
same,most effective concentration selected,[2],0.5 µM
